Like-named read-outs stand apart in the source and are kept apart here.
Experiments:
mushroom tyrosinase = experiment: Mushroom tyrosinase inhibition assay (dopachrome, 475 nm); format: biochemical; details: mushroom tyrosinase
Description: The ability of the BMTTZD analogs to inhibit mushroom tyrosinase was evaluated in the presence of L-dopa and L-tyrosine as previously described.

B16F10 cells = experiment: Melanin content assay in B16F10 cells; format: cell-based, murine; details: 20 µM; IBMX plus α-MSH (raised melanin 4.4-fold); 72 h
Description: We examined whether the ability of analogs 1, 3, and 5 to inhibit intracellular tyrosinase activity could affect intracellular melanin levels. B16F10 cells were utilized as mammalian cells. IBMX and α-MSH were used at 200 µM and 1 µM, respectively, to increase melanin biosynthesis. […] For the intracellular melanin content determination, the absorbance at 405 nm was evaluated after 72 h of incubation.
The effect of BMTTZD analogs on melanin biosynthesis was investigated following a previously described method. A 6-well microplate containing 1 × 10^5 B16F10 cells/well was cultivated for 23 h under conditions identical to those of the cell culture. […] After exposure to IBMX and α-MSH, B16F10 cells were cultivated for 72 h at 37 °C. The cells were rinsed 2 times with PBS, treated with 1N-NaOH aqueous solution (100 µL), and cultivated at 60 °C for 1 h. The lysates were moved to a microplate. At 405 nm, the well absorbance was measured utilizing a VersaMax® reader. Each experiment was carried out three times independently.

[1] = substrate L-dopa, read-out: IC50 (Mean ± SEM, µM) L-Dopa
[2] = substrate L-tyrosine, read-out: IC50 (Mean ± SEM, µM) L-Tyrosine

COc1cc(/C=C2\SC(=S)N(C)C2=O)cc(OC)c1O [Analog 6, (Z)-5-(4-Hydroxy-3,5-dimethoxybenzylidene)-3-methyl-2-thioxothiazolidin-4-one]
IC50 (mushroom tyrosinase; [1]): > 200 µM
IC50 (mushroom tyrosinase; [2]): 57.4 ± 10.9 µM

CN1C(=O)/C(=C/c2ccc(O)c(Br)c2)SC1=S [Analog 7, (Z)-5-(3-Bromo-4-hydroxybenzylidene)-3-methyl-2-thioxothiazolidin-4-one]
IC50 (mushroom tyrosinase; [1]): > 200 µM
IC50 (mushroom tyrosinase; [2]): 33.2 ± 8.42 µM

CN1C(=O)/C(=C/c2cc(Br)c(O)c(Br)c2)SC1=S [Analog 8, (Z)-5-(3,5-Dibromo-4-hydroxybenzylidene)-3-methyl-2-thioxothiazolidin-4-one]
IC50 (mushroom tyrosinase; [1]): > 200 µM
IC50 (mushroom tyrosinase; [2]): > 200 µM

O=c1cc(CO)occ1O [Kojic acid, reference compound]
decrease of intracellular melanin contents (B16F10 cells): 3.3 fold
